Measurements published in patent US20240009170A1, “INHIBITION OF GLYCOGEN SYNTHASE KINASE-3 (GSK-3)” (Brown University, priority 2020, published 2024).
“Also recorded” adds a separate entry of the source.

What was measured:
[1] = tested on: HCT-116 colorectal cancer cells; assay: Co-culture of HCT-116 and TALL-104 cells with or without αPD-1 therapy; format: cell-based, Human; conditions: compared with the other culture conditions
Description: Immune cell co-culture experiments. Co-culture experiments were conducted with GFP+ SW480 or HCT-116 colorectal cancer cells and either NK-92 natural killer cells or TALL-104 T cells in a 48-well plate, in the presence or absence of 9-ING-41. HCT-116 cells were labeled using CellTracker™ Green CMFDA (5-chloromethylfluorescein diacetate), immune cells (NK-92, TALL-104) were labeled using CellTracker™ Blue CMAC Dye (7-amino-4-chloromethylcoumarin), and ethidium homodimer-1 (EthD-1) was used as a marker of cell death (Invitrogen, Thermo Fisher Scientific, Waltham, MA, USA).
9-ING-41 increases tumor cell death in combination with αPD-1 therapy in a co-culture of HCT-116 colorectal cancer cells and immune cells. The inventors were interested in the applicability of GS3K-3 inhibitors such as 9-ING-41 in combination with immune checkpoint blockade. The inventors next performed co-cultures of immune cells (TALL-104, NK-92) and tumor cells (HCT-116) in the presence or absence of 9-ING-41, as well as either pembrolizumab® or nivolumab®, two humanized monoclonal antibodies against PD-1. The inventors evaluated HCT-116 cells in this co-culture model to determine if the 9-ING-41-mediated increase in immune cell-mediated SW480 cell killing could be reproduced in another colorectal cancer cell line.

[2] = tested on: human colorectal cell lines (HCT-116, HT-29, KM12C); assay: Cytokine, chemokine and growth factor profile of tumor cell culture supernatant (Luminex 200); format: cell-based
Description: Collection of cell culture supernatants used in cytokine measurements. Cells were plated at 3.5×10^4 cells in a 48-well plate (Thermo Fisher Scientific, Waltham, MA, USA) in complete medium and incubated at 37° C. with 5% CO2. At twenty-four hours after plating, almost all the tumor cells were adherent to the bottom of the flask and the complete medium was replaced with drug-containing medium. Subsequently, the culture supernatants were collected after forty-eight hours of incubation and were frozen at −80° C. until the measurement of cytokines was performed. The day of analysis, samples were thawed and centrifuged to remove cellular debris.
Human cytokine profiling. Human cell line culture supernatants were analyzed using an R&D systems Human Premixed Multi-Analyte Kit (R&D Systems, Inc., Minneapolis, MN, USA) and a Luminex 200 Instrument (LX200-XPON-RUO, Luminex Corporation, Austin, TX, USA) according to the manufacturer's instructions. Sample levels of TNF-α, 4-1BB/TNFRSF9/CD137, IL-8/CXCL8, Ferritin, IFN-β, IL-10, CCL2/JE/MCP-1, VEGF, CXCL13/BLC/BCA-1, IFN-γ, CCL20/MIP-3 α, CCL3/MIP-1 α, CCL22/MDC, CCL4/MIP-1 β, Fas Ligand/TNFSF6, IL-17/IL-17A, IL-2, BAFF/BLyS/TNFSF13B, GM-CSF, CXCLS/ENA-78, TRANCE/TNFSF11/RANK L, CXCL9/MIG, G-CSF, IFN-γ R1/CD119, VEGFR3/Flt-4, C-Reactive Protein/CRP, CXCL11/I-TAC, IL-21, CXCL14/BRAK, IL-6, Fas/TNFRSF6/CD95, TRAIL R3/TNFRSF10C, IL-4, CCL5/RANTES, PD-L1/B7-H1, CCL7/MCP-3/MARC, Chitinase 3-like 1, CXCL10/IP-10/CRG-2, IL-1β/IL-1F2, IL-7, Prolactin, CCL8/MCP-2, TRAIL R2/TNFRSF10B, M-CSF, IL-15, Granzyme B, IFN-α, TREM-1, IL-12/IL-23 p40, TRAIL/TNFSF10, CCL11/Eotaxin, and IL-18/IL-1F4. Sample values are reported in picograms per milliliter (pg/mL).
Cells were treated with 9-ING-41, a selective and potent small molecule inhibitor of GSK-3β, at doses up to 100 μM for seventy-two hours to determine IC10, IC30, IC50, and IC70. Cytokine, chemokine, and growth factor levels were analyzed in the tumor cell culture supernatants after treatment at IC10, IC30, IC50, and IC70 for forty-eight hours using a Luminex 200 multiplexing instrument.

HT-29 = assay: Flow cytometric analysis of cell surface markers, HT-29; format: cell-based, Human; conditions: post-treatment, 48 hours
Description: FIG. 12 is a set of bar graphs showing flow cytometric analyses of cell surface markers of tumor and immune cells treated with 9-ING-41 in vitro. FIG. 12(A) HCT-116, FIG. 12(B) HT-29, FIG. 12(C) TALL-104, and FIG. 12(D) NK-92 cells were treated with indicated concentrations of 9-ING-41 for forty-eight hours, stained for indicated cell surface marker expression, and analyzed with a BD LSRII. Statistical significance was determined using two-tailed unpaired T tests.
To further understand the differential 9-ING-41-mediated impacts on protein expression, the inventors treated tumor and immune cells in vitro with 9-ING-41, then performed a flow cytometric analysis for expression of cell surface markers. […] A similar trend occurred in HT-29 cells, although not statistically significant. […] FIG. 10(C). […] FIG. 10(D).

GSK-3 = conditions: cited from earlier work
CT-26 = assay: Syngeneic murine colon carcinoma BALB/c model with MSS cell line CT-26, survival and response; conditions: mouse, in vivo
Description: In vivo studies. […] Six to seven weeks old male BALB/c mice were purchased from Taconic. […] 100 μL was injected subcutaneously into the rear flanks. Once tumor volume reached at least 100 mm3, mice were randomly assigned to one of four groups (three mice/group): vehicle, ONC212, 2-DG, combination of ONC212 p2-DG. ONC212 was delivered by oral gavage at the dosage of 50 mg/kg in a solution of 70% phosphate-buffered serum, 10% DMSO, and 20% Kolliphor EL (Sigma-Aldrich, catalog no. C5135), three times per week. The treatment continued until mice developed signs of toxicity or discomfort from excessive tumor growth. Mice were weighed once a week to monitor signs of drug toxicity. The length (L) and width (VV) of the masses were measured three times per week with a digital caliper. The tumor volume was calculated applying the formula: 0.5LW2.
To evaluate the potential for 9-ING-41 to increase efficacy of immune checkpoint blockade, the inventors used a syngeneic murine colon carcinoma BALB/c murine model with a microsatellite stable (MSS) cell line CT-26.

Cn1cc(C2=C(c3coc4ccc(F)cc34)C(=O)NC2=O)c2cc3c(cc21)OCO3 [9-ING-41]
cell death after twenty-four hours of co-culture with TALL-104 [1]: even greater amount of cell death | shed PD-L1 ([2]; colorectal cancer cell lines, regression slope analysis, 48 hours): decreases | overall cytokine levels ([2]; increasing doses (IC10-IC70), 48 hours): decreasing trend | VEGF ([2]; increasing doses, 48 hours, supernatant): most prominently decreased | expression of chemokine CXCL14 (BRAK) ([2]; increasing doses, supernatant): increase | macrophage colony-stimulating factor (M-CSF) ([2]; supernatant): decrease | HLA-E and PD-L1 surface expression (HT-29): statistically significant increase | GSK-3 isoforms inhibited (GSK-3): inhibits both α and β isoforms | potency compared with other GSK-3 inhibitors (GSK-3): significantly more potent | survival compared to control group (CT-26): statistically significant improved survival; also recorded: prolonged the survival
